Consider 12 molecules from US8450317B2, “CXCR3 receptor antagonists” (Boehringer Ingelheim International GmbH, priority 2009, dated 2013).

This assay addresses CXCR3 (Macaca fascicularis, UniProt A0A2K5UV19). As to the kind of experiment: functional cellular assay measuring calcium flux in CXCR3 transfected cells (block of CXCR3/IP-10 interaction). It is filed as cell-based, Cyno. To be noted: IP-10 induced intracellular calcium flux; Cyno-CHO cells stably expressing recombinant CXCR3 and G-alpha-16; IP-10 at EC80; read-out: IC50. Summed up:
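Cyno-CHO cells stably expressing CXCR3 and G-alpha-16, loaded with Ca-4 dye in HBSS/10 mM HEPES pH 7.4 with 2 mM probenecid for 1 h at 37° C. Compound (final 10 microM) preincubated 15 min at room temperature, then IP-10 at EC80 added; calcium flux read at 480/540 nm.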

Sequence of CXCR3 (A0A2K5UV19 entry or part of it): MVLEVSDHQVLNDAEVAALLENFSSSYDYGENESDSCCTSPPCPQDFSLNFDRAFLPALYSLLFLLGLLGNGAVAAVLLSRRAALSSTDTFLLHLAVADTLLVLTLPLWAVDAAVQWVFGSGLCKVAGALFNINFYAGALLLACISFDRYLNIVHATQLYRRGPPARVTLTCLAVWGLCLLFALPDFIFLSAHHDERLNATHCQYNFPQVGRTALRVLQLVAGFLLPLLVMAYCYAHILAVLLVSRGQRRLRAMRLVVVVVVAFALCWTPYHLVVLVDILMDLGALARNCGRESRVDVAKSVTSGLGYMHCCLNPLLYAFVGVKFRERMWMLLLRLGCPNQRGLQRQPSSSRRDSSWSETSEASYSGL

Regarding `CC1CN(c2ccc(C(F)(F)F)cc2-c2cnc(N3CCC(O)CC3)nc2)CCN1C(=O)CN1Cc2ccccc2C1=O` (stereo not drawn) [2-[2-(4-{2-[2-(4-hydroxypiperidin-1-yl)pyrimidin-5-yl]-4-(trifluoromethyl)phenyl}-2-methylpiperazin-1-yl)-2-oxoethyl]-2,3-dihydro-1H-isoindol-1-one], the IC50 is 9 nM. As for `CC1CN(c2ccccc2-c2cnc(N3CCC(O)CC3)nc2)CCN1C(=O)CN1Cc2ccccc2C1=O` (stereo not drawn) [2-[2-(4-{2-[2-(4-hydroxypiperidin-1-yl)pyrimidin-5-yl]phenyl}-2-methylpiperazin-1-yl)-2-oxoethyl]-2,3-dihydro-1H-isoindol-1-one], the figure is 10 nM; as for `O=C(CN1Cc2ccccc2C1=O)N1CCN(c2ccc(F)cc2-c2cnc(N3CCC(O)CC3)nc2)CC1` [2-[2-(4-{4-fluoro-2-[2-(4-hydroxypiperidin-1-yl)pyrimidin-5-yl]phenyl}piperazin-1-yl)-2-oxoethyl]-2,3-dihydro-1H-isoindol-1-one], 9 nM. As for `CN1CCN(c2ncc(-c3cc(F)ccc3N3CCN(C(=O)CN4Cc5ccccc5C4=O)CC3)cn2)CC1` [2-[2-(4-{4-fluoro-2-[2-(4-methylpiperazin-1-yl)pyrimidin-5-yl]phenyl}piperazin-1-yl)-2-oxoethyl]-2,3-dihydro-1H-isoindol-1-one], the figure is 26 nM; as for `CC1CN(c2ccc(F)cc2-c2cnc(S(C)(=O)=O)nc2)CCN1C(=O)CN1Cc2ccccc2C1=O` (stereo not drawn) [2-[2-(4-{4-fluoro-2-[2-(methylsulfonyl)pyrimidin-5-yl]phenyl}-2-methylpiperazin-1-yl)-2-oxoethyl]-2,3-dihydro-1H-isoindol-1-one], 245 nM. As for `CS(=O)(=O)c1ncc(-c2cc(F)ccc2N2CCN(C(=O)CN3Cc4ccccc4C3=O)CC2)cn1` [2-[2-(4-{4-fluoro-2-[2-(methylsulfonyl)pyrimidin-5-yl]phenyl}piperazin-1-yl)-2-oxoethyl]-2,3-dihydro-1H-isoindol-1-one], the figure is 249 nM.

Turning to `O=C(CN1Cc2ccccc2C1=O)N1CCN(c2ccc(F)cc2-c2cnc(N3CCOCC3)nc2)CC1` [2-[2-(4-{4-fluoro-2-[2-(morpholin-4-yl)pyrimidin-5-yl]phenyl}piperazin-1-yl)-2-oxoethyl]-2,3-dihydro-1H-isoindol-1-one], the IC50 was 23 nM.

Turning to `O=C(CN1Cc2ccccc2C1=O)N1CCN(c2ccc(F)cc2-c2cnc(N3CCCC3)nc2)CC1` [2-[2-(4-{4-fluoro-2-[2-(pyrrolidin-1-yl)pyrimidin-5-yl]phenyl}piperazin-1-yl)-2-oxoethyl]-2,3-dihydro-1H-isoindol-1-one], the IC50 turned out to be 15 nM. Take `O=C(Cn1ccc2cccnc21)N1CCN(c2ccccc2N2Cc3ccccc3C2=O)CC1` [2-{2-[4-(2-Pyrrolo[2,3-b]pyridin-1-yl-acetyl)-piperazin-1-yl]-phenyl}-2,3-dihydro-isoindol-1-one]: the IC50 stood at 48 nM.

Regarding `CC1CN(c2ccc(F)cc2-c2cnc(N3CCC(S(C)(=O)=O)CC3)nc2)CCN1C(=O)CN1Cc2ccccc2C1=O` (stereo not drawn) [2-{2-[4-(4-fluoro-2-{2-[4-(methylsulfonyl)piperidin-1-yl]pyrimidin-5-yl}phenyl)-2-methylpiperazin-1-yl]-2-oxoethyl}-2,3-dihydro-1H-isoindol-1-one], the IC50 turned out to be 10 nM. In the case of `CS(=O)(=O)C1CCN(c2ncc(-c3cc(F)ccc3N3CCN(C(=O)CN4Cc5ccccc5C4=O)CC3)cn2)CC1` [2-{2-[4-(4-fluoro-2-{2-[4-(methylsulfonyl)piperidin-1-yl]pyrimidin-5-yl}phenyl)piperazin-1-yl]-2-oxoethyl}-2,3-dihydro-1H-isoindol-1-one], the IC50 was found to be 9 nM. Under `COc1cc(NC(=O)c2cc(F)ccc2N2CCN(C(=O)Cn3nc(C)cc3C)[C@H](C)C2)ccn1` [2-{(3R)-4-[(3,5-dimethyl-1H-pyrazol-1-yl)acetyl]-3-methylpiperazin-1-yl}-5-fluoro-N-(2-methoxypyridin-4-yl)benzamide] stands 8 nM.
